Common to all, as to format: binding
The target in assay [1] is T1, 14-3-3η (Homo sapiens, UniProt Q04917).
T1 construct: full length proteins were concentrated by centrifugation; His tag (pProEx HTb vector) (N); made in house; host or cells: E. coli BL21(DE3)
T1 sequence (Q04917 1-246): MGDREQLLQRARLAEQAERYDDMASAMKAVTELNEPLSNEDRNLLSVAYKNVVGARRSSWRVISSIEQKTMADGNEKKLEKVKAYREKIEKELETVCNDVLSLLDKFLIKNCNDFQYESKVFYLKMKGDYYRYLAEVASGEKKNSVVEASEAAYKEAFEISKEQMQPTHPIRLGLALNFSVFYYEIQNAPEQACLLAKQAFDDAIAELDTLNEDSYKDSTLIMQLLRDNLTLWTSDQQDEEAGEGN
Nature of the assay: Fluorescence anisotropy (FA) competition assay against tracer hDMX361–374^pSer367*. As to conditions: Fig. 2b experiment; hydrazide equilibrated with 5 eq. aldehyde, serially diluted; 50 nM hDMX361–374^pSer367*, 1 μM 14-3-3η, 50 mM NH4OAc, 10 mM aniline, 1 mM DTT, pH 6.5. As for the experimental part: A fluorescence anisotropy (FA) competition assay was subsequently carried out using conditions previously found suitable for acylhydrazone formation (pH 6.5, 50 mM NH4OAc, 10 mM aniline) with added DTT (1 mM) to supress disulfide formation. hDMX361–369^pSer367Gly-hydrazide was used to compete with a tracer peptide: hDMX361–374^pSer367* for binding to 14-3-3η (Fig S2, ESI ^†). […] Initial attempts to screen in cocktails, established the aldehydes had no affect on their own (Fig. S3, ESI ^†). We then performed an assay where each aldehyde was screened individually with hDMX361–369^pSer367Gly-hydrazide. A decrease in anisotropy can be attributed to a particular hydrazone product, avoiding the additional step of product identification e.g. by HRMS, and, combines the equilibration step for hydrazone formation with 14-3-3η screening (Fig. 2a). […] To confirm the single-concentration results, a competition assay was performed (Fig. 2b). hDMX361–369^pSer367Gly-hydrazide was equilibrated with 5 equivalents of each aldehyde (product formation confirmed by LC-MS, see Fig. S4, ESI ^†), and serially diluted against the tracer peptide (hDMX361–374^pSer367*) and 14-3-3η protein.
Fig. 2 Dynamic ligation screening based on hDMX361–369^pSer367Gly-hydrazide (a) Anisotropy values of individually screened hydrazones (relative to buffer, zero activity negative control in grey), hDMX361–374^pSer367 (blue) and hDMX361–369^pSer367Gly-hydrazide (red) as positive controls with hits (hDMX361–369^pSer367Gly-hydrazone-FC45 and hDMX361–369^pSer367Gly-hydrazone-SIG17) highlighted in orange boxes (10 μM acetylated hydrazide peptide mixed with 5 eq. of aldehyde, 1 μM 14-3-3η, 50 nM hDMX361–374^pSer367*, 50 mM NH4OAc, 10 mM aniline and 1 mM DTT) (b) competition FA curves for hydrazones taken forward as hits (50 nM hDMX361–374^pSer367*, 1 μM 14-3-3η in 50 mM NH4OAc, 10 mM aniline and 1 mM DTT).
Fig. 3 Dynamic ligation screening based on hDMX361–370^pSer367Gly-hydrazide (a) anisotropy values of individually screened hydrazones (relative to buffer, zero activity negative control in grey), hDMX361–374^pSer367 (blue) and hDMX361–370^pSer367Gly-hydrazide (red) as positive controls with hits highlighted in black boxes (10 μM acetylated hydrazide peptide mixed with 5 eq. of aldehyde, 1 μM 14-3-3η, 50 nM hDMX361–374^pSer367*, 50 mM NH4OAc, 10 mM aniline and 1 mM DTT) (b) representative competition FA curves for hydrazones taken forwards as hits (50 nM hDMX361–374^pSer367*, 1 μM 14-3-3η in 50 mM NH4OAc, 10 mM aniline and 1 mM DTT). […]
(§1) Screening was performed using fluorescence anisotropy competition assay, in 50 mM NH4Ac pH 6.5 buffer containing 10 mM aniline, 1 mM DTT. […]
Background: Polarisation of emitted light reports the rotation of a fluorescent probe.

In assay [2] the target is T1, 14-3-3η. As to the kind of experiment: Dynamic ligation screen, FA competition at single concentration. The following applies: 10 μM acetylated hydrazide peptide with 5 eq. aldehyde, 24 h room temperature, 1 μM 14-3-3η, 50 nM hDMX361–374^pSer367*, 50 mM NH4OAc, 10 mM aniline, 1 mM DTT; duplicates. As for the experimental part:
A fluorescence anisotropy (FA) competition assay was subsequently carried out using conditions previously found suitable for acylhydrazone formation (pH 6.5, 50 mM NH4OAc, 10 mM aniline) with added DTT (1 mM) to supress disulfide formation. hDMX361–369^pSer367Gly-hydrazide was used to compete with a tracer peptide: hDMX361–374^pSer367* for binding to 14-3-3η (Fig S2, ESI ^†). […] Initial attempts to screen in cocktails, established the aldehydes had no affect on their own (Fig. S3, ESI ^†). We then performed an assay where each aldehyde was screened individually with hDMX361–369^pSer367Gly-hydrazide. A decrease in anisotropy can be attributed to a particular hydrazone product, avoiding the additional step of product identification e.g. by HRMS, and, combines the equilibration step for hydrazone formation with 14-3-3η screening (Fig. 2a). […]
Figure S3. […] Aldehydes were assessed as […]
as §1
Screening was performed using 10 μM acetylated hydrazide peptide mixed with 5 eq. of aldehyde, 1 μM 14-3-3η,. […] After 24 hours, hDMX tracer peptide was added to a concentration of 50 nM to the experiment wells or equal amount of buffers was added to the blanks and the plate was read immediately. […]

Assay [3] concerns the target T1, 14-3-3η. Nature of the assay: FA direct titration of tracer peptide. The following applies: tracer 50 nM, 10 mM HEPES, 150 mM NaCl, 0.1% Tween 20, 0.1% BSA, pH 7.4; triplicates; read-out: Kd (14-3-3 affinity by FA). As for the experimental part: To explore the effect of non-linked fragments, 5 commercially available fragments with similarity to the reduced aldehyde form of COOH4, FC50 and FC32; analogues bearing alcohol or methyl groups in place of the aldehyde (Fig. 3c) were assessed. For consistency a modified tracer peptide was used (hDMX361–370^pSer367Gly* i.e. analogous to the screening peptide but bearing FAM-Ahx). […] Stabilization of the peptide/14-3-3η interaction was observed as the anisotropy increased at the highest fragment concentration, consistent with millimolar affinities (Fig. 3c).
Figure S7. Direct titration of peptide for analysis of fragment stabilizing effects ( hDMX361- […]
(1 picture or pasted object on this page, not shown here)
Peptides were cleaved and side-chain deprotected using ‘Reagent K’ […]
Direct titration assay: All assays were performed in 384 well plates (each experiment was run in triplicates) and data were collected by Perkin Elmer EnVision 2013 plate reader with excitation at 480 nm (30 nm bandwidth), polarised dichroic mirror at 505 nm and emission at 535 nm (40 nm bandwidth, S and P polarised). […] A ½ fold dilution series was performed in the titration, with plates read after 30 min, 4 h and 20-24 h. […]
Collected data were processed in Microsoft Excel using the equations bellow. Total intensity I and anisotropy r were calculated using Equations 1 and 2 for each well. […]

Square brackets hold non-standard residues; d marks the D form. Peptide text beside a SMILES is read from it. * marks the point of attachment. 5FAM = O=C1OC2(c3ccc(O)cc3Oc3cc(O)ccc32)c2ccc(C(=O)*)cc21; pS = N[C@@H](COP(=O)(O)O)C(=O)O; Ahx = NCCCCCC(=O)O

One may read the IC50 as the concentration needed to halve the response being measured. At 14-3-3η [1], `CC[C@H](C)[C@H](NC(=O)[C@@H](NC(=O)[C@H](CCCNC(=N)N)NC(=O)[C@H](CCCNC(=N)N)NC(=O)[C@H](CS)NC(=O)[C@H](CC(=O)O)NC(C)=O)[C@@H](C)O)C(=O)N[C@@H](COP(=O)(O)O)C(=O)N[C@@H](C)C(=O)N1CCC[C@H]1C(=O)NCC(=O)N/N=C/c1scc(Br)c1Br` [hDMX361–369^pSer367Gly-hydrazone-SIG17] (HELM PEPTIDE1{[ac].D.C.R.R.T.I.[O=C([C@H](COP(=O)(O)O)N[*:1])[*:2]].A.P.G.[Brc1csc(/C=N/N[*:1])c1Br]}$$$$V2.0) displayed an IC50 of 13.7 ± 0.5 µM. For the same molecule, at 14-3-3η [2], the “Anisotropy of individually screened hydrazones relative to controls (hit call)” value was “hits”.
A word on the Kd: it is a measure of binding affinity in units of concentration. For the molecule `CC[C@H](C)[C@H](NC(=O)[C@@H](NC(=O)[C@H](CCCNC(=N)N)NC(=O)[C@H](CCCNC(=N)N)NC(=O)[C@H](CS)NC(=O)[C@H](CC(=O)O)NC(=O)CCCCCNC(=O)c1ccc2c(c1)C(=O)OC21c2ccc(O)cc2Oc2cc(O)ccc21)[C@@H](C)O)C(=O)N[C@@H](COP(=O)(O)O)C(=O)N[C@@H](C)C(=O)N1CCC[C@H]1C(=O)N[C@H](C(=O)NCC(N)=O)C(C)C` [hDMX361–370^pSer367Gly*] ({5FAM-Ahx}-DCRRTI[pS]APVG-NH2), the Kd on 14-3-3η [3] worked out at 0.172 ± 0.0093 µM.

Values taken from publication PMC9092428, “Towards identification of protein–protein interaction stabilizers via inhibitory peptide-fragment hybrids using templated fragment ligation” (RSC Chemical Biology, 2022).
